Reference: patent US7297460B2, “Radiation curable ink compositions suitable for ink-jet printing” (Agfa-Gevaert, priority 2003, dated 2007)

Test: Solubility of invention compounds in reactive diluents and oligomers
Assay type: physicochemical

C=C(C)C(=O)OCCC[Si]12O[Si]3(CCCOC(=O)C(=C)C)O[Si]4(CCCOC(=O)C(=C)C)O[Si](CCCOC(=O)C(=C)C)(O1)O[Si]1(CCCOC(=O)C(=C)C)O[Si](CCCOC(=O)C(=C)C)(O2)O[Si](CCCOC(=O)C(=C)C)(O3)O[Si](CCCOC(=O)C(=C)C)(O4)O1 [I.10]
50 wt %: Solubility in CN501 (in CRAYNOR CN501, amino-modified polether acrylate, * footnote: complete solubility after addition of a very small amount of CH2Cl2) | Solubility in TMPTA (in TMPTA = trihydroxymethylpropane triacrylate, * / # footnotes: dissolved after addition of a very small amount of CH2Cl2) | Solubility in TPGDA (in TPGDA = tri(propyleneglycol) diacrylate, * / # footnotes: dissolved after addition of a very small amount of CH2Cl2)
